This assay concerns the target T1, Beta-3 Adrenergic Receptor (Homo sapiens, UniProt P13945).
T1 construct: expressed in transfected cells; host or cells: CHO-K1
The experiment in a line: HTRF cAMP antagonist assay, IC50 determination. In kind it is cell-based. To be noted: CHO-K1 cells stably expressing recombinant receptor; vs isoproterenol at EC90; unit nM. The method, then:
HTRF CAMP assays were performed according to manufacturer's instructions (Cisbio, CAMP Dynamic 2 Assay Kit; #62AM4PEJ). CHO-K1 cells stably expressing recombinant receptor were harvested and suspended in warm PBS to make a 300,000 cells/mL stock. This cell suspension was dispensed into 384 well assay plates (PerkinElmer ProxiPlate #6008280) at 5 μL per well (1500 cells/well) along with a CAMP standard curve.
Compounds were dissolved and serially diluted (5-fold) in DMSO to generate a 10-point dose response stock. […] After a brief incubation, 2.5 μL of isoproterenol stock, prepared at a concentration 4 times its EC90 at the receptor of interest, was added to the wells. The EC90 for isoproterenol, a beta-adrenergic agonist, was determined in separate experiments using standard methods to measure agonist potencies.
Following a 1-hour incubation at room temperature, 5 μL of CAMP-D2 Reagent diluted in Lysis Buffer was added to each well followed by 5 μL of Cryptate Reagent. Plates were further incubated at room temperature for 1 hour prior to reading. Time resolved fluorescence measurements were collected on a suitable, HTRF-capable plate reader.
Counts from the plate reader were fit to the CAMP standard curve on the assay plate in order to determine cAMP concentrations in each well, and these values were used to construct dose-response curves to obtain IC50 values.
For orientation: Time-resolved FRET reads energy transfer from a long-lived donor to a nearby acceptor.

Experimental findings from US20250127773A1, “MODULATORS OF THE BETA-3 ADRENERGIC RECEPTOR USEFUL FOR THE TREATMENT OR PREVENTION OF HEART FAILURE” (Arena Pharmaceuticals, Inc., priority 2021, published 2025) are described below.

T1 sequence (P13945 whole entry): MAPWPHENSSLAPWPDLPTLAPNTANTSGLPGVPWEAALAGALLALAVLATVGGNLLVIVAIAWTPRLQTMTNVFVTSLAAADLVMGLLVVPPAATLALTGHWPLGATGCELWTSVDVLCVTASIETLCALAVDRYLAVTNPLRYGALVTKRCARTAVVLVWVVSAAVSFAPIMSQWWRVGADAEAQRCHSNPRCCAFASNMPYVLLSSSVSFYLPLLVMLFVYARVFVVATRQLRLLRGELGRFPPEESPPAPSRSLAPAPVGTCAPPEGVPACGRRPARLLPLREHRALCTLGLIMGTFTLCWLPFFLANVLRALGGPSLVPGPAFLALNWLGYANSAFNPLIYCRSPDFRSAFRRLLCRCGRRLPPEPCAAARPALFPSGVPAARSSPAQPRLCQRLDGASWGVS

The term IC50 denotes the concentration needed to halve the response being measured. As to `CNS(=O)(=O)c1cccc(OCC(O)CNC2COC3(CCN(S(=O)(=O)c4cccc(-c5cnn(C)c5)c4)CC3)C2)c1` [Compound B216, 3-((S)-2-hydroxy-3-((S)-8-(3-(1-methyl-1H-pyrazol-4-yl)phenylsulfonyl)-1-oxa-8-azaspiro[4.5]decan-3-ylamino)propoxy)-N-20 methylbenzenesulfonamide], the concentration for half-maximal inhibition (IC50) turned out to be 57.7 nM.

Regarding `C[C@@H](NS(=O)(=O)c1cccc(OC[C@@H](O)CNC2COC3(CCN(S(=O)(=O)c4ccc5ccccc5c4)CC3)C2)c1)C1CC1` (stereo partly drawn) [Compound B93, N—((R)-1-cyclopropylethyl)-3-((2S)-2-hydroxy-3-(8-(naphthalen-2-ylsulfonyl)-1-oxa-8-25 azaspiro[4.5]decan-3-ylamino)propoxy)benzenesulfonamide], the IC50 was 112 nM.

As to `CCOCCNS(=O)(=O)c1cccc(OCC(O)CNC2COC3(CCN(S(=O)(=O)c4ccc5ccccc5c4)CC3)C2)c1` [Compound B47, NV-(2-ethoxyethyl)-3-((2S)-2-hydroxy-3-(8-(naphthalen-2-ylsulfonyl)-1-oxa-8-azaspiro[4.5]decan-3-ylamino)propoxy)benzenesulfonamide], the IC50 is 155 nM.
